The test system of series [1] is HNSCC lymph node metastasis. Briefly: Cervical lymph node metastasis by anti-PCK immunostaining. It counts as in vivo, mouse. The following applies: given concurrently with PTC209 plus anti-PD1.
Protocol: Tumor growth and cervical lymph node metastasis were examined as described before (Chen et al., 2017). Briefly, mice were sacrificed, and tongues and cervical lymph nodes were harvested immediately and the lesion surface areas were measured. For histological analysis and immunostaining, longitudinally cut tongues (dorsal/ventral) and intact lymph nodes were fixed overnight in 10% buffered formalin and paraffin-embedded. Tissue blocks were cut into 10-15 sections in 4 μm thickness and stained with hematoxylin and eosin (H&E). The SCC number was counted and areas were measured as described before (Chen et al., 2017). […] To assess lymph node metastasis, the sections of cervical lymph nodes were immunostained with anti-PCK antibodies which specifically detected epithelial tumor cells in lymph nodes (Santa Cruz, Cat #sc-8018). The percentage of lymph nodes with metastasis and their metastatic areas were measured.
A further series concerns CD8+ T cells. Briefly: Immunostaining of CD8+ T cells in HNSCC. The class given is in vivo, mouse. On the procedure: (§1) The immunocomplexes were detected and visualized using related secondary antibodies conjugated with Cy2 or Cy3 (Jackson ImmunoResearch Laboratories). […] At least three sections from each HNSCC lesions were immunostained and analyzed. Tumor cells (>150) and CD8+, Ac-casp3+ and Tomato^+ cells of these tumor cell areas were counted manually in each section. The percentage of CD8+, Ac-casp3^+ and Tomato^+ cells were calculated by dividing those cells with tumor cells and averaged from the sections.

The next series relates to HNSCC tumor cells. Briefly: Anti-active caspase-3 (Ac-casp3) immunostaining of apoptosis in HNSCC. The class given is in vivo, mouse. The following applies: given concurrently with PTC209 plus anti-PD1. As to the method: as §1
For series [2], the system named is BMI1+ CSCs. Briefly: BMI1 immunostaining of CSCs in HNSCC. The following applies: FIG. 16C-16D. The class given is in vivo, mouse.
The next series has as its system HNSCC. Briefly: 4NQO mouse model of HNSCC: lesion area, histology, invasion grade.
Series [3] concerns BMI1+ CSCs. Briefly: In vivo labeling and lineage tracing of Tomato+ BMI1+ CSCs. Also on record: species or system mouse. The following applies: tamoxifen 1 day prior to sacrifice, treated 4 weeks. As to the method:
as §1

Series [4] relates to BMI1. Briefly: BMI1 expression in HNSCC tumors by immunostaining and Western blot. The class given is in vivo, mouse. The following applies: HNSCC, FIG. 18. As to the method:
Cells were lysed using the radioimmunoprecipitation assay (RIPA) buffer (Sigma-Aldrich, Cat #R0278) added with a cocktail of protease inhibitors (Thermo Fisher Scientific, Cat ##78430) and phosphatase inhibitors (Sigma-Aldrich, Cat #4906845001). Protein extracts were resolved on a 10% or 15% SDS polyacrylamide gel and then transferred to a polyvinylidene difluoride membrane. Membranes were blocked with 5% milk for 1 h and incubated with primary antibodies overnight at 4° C. […] The signals were detected using the Clarity Western ECL kit (Bio-Rad, Cat #1705060). […] After treatment, supernatants were collected, and the protein levels of CCL5, CXCL9, CXCL10 and CXCL11 were measured with ELISA (R&D Systems, Cat #DRN00B, DCX900, DIP100, DCX110) according to the manufacturer's instructions.
In general terms: A western blot detects proteins with antibodies after separation by electrophoresis.

Another series has as its target BMI-1 (Homo sapiens, UniProt P35226). The following applies: cell-free assay; cited from earlier work.
For series [5] the following is noted: phase 1 study; cited from earlier work.
Series [6] has as its system BMI1. Briefly: Western blot of BMI1 and H2AUb in SCC23 and SCC1 cells. It counts as cell-based, human. As to the method: Human SCC23 and SCC1 cells were grown in DMEM containing 10% FBS and antibiotics (streptomycin and penicillin) at 37° C. in a 5% CO2 atmosphere. To generate lentiviruses, scramble control (shCtrl, Addgene, Cat #1864; see Sarbassov et al Science 2005 Feb. 18; 307(5712):1098-101) and BMI1 specific shRNA lentiviral plasmids (shBmi1, Sigma-Aldrich, Cat #TRCN0000020156, comprising […], SEQ ID NO:35) were transfected into HEK293T cells with two helper plasmids psPAX2 (Addgene, Cat #12260) and pMD2.G (Addgene, Cat #12259). Viral supernatant was harvested 72 h after transfection and passed through a 0.45 μm filter to remove cell debris and live cells. Collected lentiviruses were used directly to infect cells with the addition of polybrene (Sigma-Aldrich, Cat #H9268), or frozen at −80° C. for later use. […]
Cells were lysed using the radioimmunoprecipitation assay (RIPA) buffer (Sigma-Aldrich, Cat #R0278) added with a cocktail of protease inhibitors (Thermo Fisher Scientific, Cat ##78430) and phosphatase inhibitors (Sigma-Aldrich, Cat #4906845001). […] The signals were detected using the Clarity Western ECL kit (Bio-Rad, Cat #1705060). […] After treatment, supernatants were collected, and the protein levels of CCL5, CXCL9, CXCL10 and CXCL11 were measured with ELISA (R&D Systems, Cat #DRN00B, DCX900, DIP100, DCX110) according to the manufacturer's instructions.

The next series concerns pH2A.X. Briefly: DNA damage in SCC23 and SCC1 cells (pH2A.X, alkaline comet assay). The class given is cell-based, human. As to the method:
(§2) Cells were lysed using the radioimmunoprecipitation assay (RIPA) buffer (Sigma-Aldrich, Cat #R0278) added with a cocktail of protease inhibitors (Thermo Fisher Scientific, Cat ##78430) and phosphatase inhibitors (Sigma-Aldrich, Cat #4906845001). Protein extracts were resolved on a 10% or 15% SDS polyacrylamide gel and then transferred to a polyvinylidene difluoride membrane. Membranes were blocked with 5% milk for 1 h and incubated with primary antibodies overnight at 4° C. Primary antibodies used in this study were: anti-phospho-STING (Ser366) (1:1,000; Cell Signaling Technology, Cat #19781), anti-STING (1:1,000; Cell Signaling Technology, Cat #13647), anti-phospho-TBK1 (Ser172) (1:1,000; Cell Signaling Technology, Cat #5483), anti-TBK1 (1:1,000; Cell Signaling Technology, Cat #3504), anti-phospho-IRF3 (Ser396) (1:1,000; Cell Signaling Technology, Cat #29047), anti-IRF3 (1:1,000; Cell Signaling Technology, Cat #4302), anti-BMI1 (1:1,000; Cell Signaling Technology, Cat #6964), anti-Ubiquityl-Histone H2A (Lys119) (1:1000, Cell Signaling Technology, Cat #8240), anti-phospho Histone H2A.X (Ser139) (1:1000; Cell Signaling Technology, Cat #9718), and anti-GAPDH (1:1000; Cell Signaling Technology, Cat #5174), anti-Histone H3 (1:2,000; Cell Signaling Technology, Cat #4499). The signals were detected using the Clarity Western ECL kit (Bio-Rad, Cat #1705060). To measure the protein levels of CCL5, CXCL9, CXCL10 and CXCL11, cells were treated with PTC209 or shBMI1 knockdown for 48 hr. After treatment, supernatants were collected, and the protein levels of CCL5, CXCL9, CXCL10 and CXCL11 were measured with ELISA (R&D Systems, Cat #DRN00B, DCX900, DIP100, DCX110) according to the manufacturer's instructions.
Single cell gel electrophoresis comet assays were performed using the SCGE assay Kit (Enzo Life Sciences, Cat #ADI-900-166). Following the treatment, cells were mixed with low melting point agarose at a volume ratio of 1:50, and 100 μl of aliquots were loaded onto pre-warmed slides. Slides were incubated in pre-chilled lysis solution for 1 h and then in pre-chilled alkaline solution for 1 h. Electrophoresis was run at 22 V in the TBE buffer for 30 min. Comets were stained with CYGREEN dye for 30 min and imaged. 50 individual cells at least per sample were evaluated in duplicates by the CASP Version 1.2.2 analysis tool.

The test system of the next series is cytosolic dsDNA. Briefly: Cytosolic dsDNA staining (PicoGreen/MitoTracker). The class given is cell-based, human. Conditions: SCC23 and SCC1 cells. As to the method: Following the treatment, SCC23 and SCC1 cells were incubated with culture media containing PicoGreen (dsDNA stain, 200-fold dilution, Thermo Fisher Scientific, Cat #P11496) and MitoTracker ([…], 100 nM, Thermo Fisher Scientific, Cat #M7512). One hour after incubation, cells were fixed with 4% paraformaldehyde for 10 min. Cells were then washed twice with PBS and stained with DAPI (Sigma-Aldrich, Cat #D9542) and mounted with SlowFade Antifade Reagents (Thermo Fisher Scientific, Cat #536937). Staining was imaged and assessed using a Leica SP5X laser scanning confocal microscope.

The subject of series [7] is cGAS-STING-IRF3 signaling. Briefly: Western blot of phosphorylated STING, TBK1, IRF3. The class given is cell-based, human. As to the method:
as §2

In another series the test system is IFNβ. Briefly: qRT-PCR of IFNβ mRNA. The class given is cell-based, human. Conditions: SCC23 cells. As to the method: (§3) For qRT-PCR, total RNA was prepared using TRIzol reagent (Thermo Fisher Scientific Cat #15596026), and 1 μg of RNA was reversely transcribed with random primer (Thermo Fisher Scientific Cat #48190011), dNTP mix (Thermo Fisher Scientific, Cat #18427013), and M-MuLV Reverse Transcriptase (New England Biolabs, Cat #M0253L). The levels of mRNA were […] measured using a SYBRGreen supermix (Bio-Rad, Cat #1708880). GAPDH was used as an internal control.

For series [8], the system named is promoters of CCL5, CXCL9, CXCL10 and CXCL11. Briefly: ChIP-qPCR on chemokine promoters. The following applies: SCC23 cells. It counts as cell-based, human. On the procedure:
ChIP-qPCR assays were performed as previously described (Ding et al, 2013). Briefly, SCC cells were sequentially treated with dimethyl 3,3′-dithiobispropionimidate-HCl (DTBP; Cat #20665, Thermo Fisher Scientific) solution and formaldehyde, and harvested with a cell scraper. The cell pellet was lysed with ChIP lysis buffer and sonicated to generate 200-500 bp DNA fragments with a sonicator. The fragmented chromatins were immunoprecipitated with anti-BMI1 (Cell Signaling Technology, Cat #6964), anti-Ubiquityl-Histone H2A (Lys119) (Cell Signaling Technology, Cat #8240) overnight at 4° C. The precipitated DNA-chromatin products were purified with ChIP DNA clean & concentrator kit (Cat #D5205, Zymo Research) and the DNA levels were quantified by qPCR. Data is presented as the percentage of input DNA.
(Real-time PCR tracks product formation cycle by cycle.)

A further series concerns SCC23 cells. Briefly: qRT-PCR of ATM, DNA-PKcs, MRE11, JUN, FOSL1, MMP3, MMP9 in SCC23 cells. It counts as cell-based, human. As to the method: as §3
[9] abbreviates: given concurrently with PTC209 plus anti-PD1.

A word on the IC50: it is the concentration at which inhibition is half-maximal.

Sequence of BMI-1 (P35226 whole entry, species assumed): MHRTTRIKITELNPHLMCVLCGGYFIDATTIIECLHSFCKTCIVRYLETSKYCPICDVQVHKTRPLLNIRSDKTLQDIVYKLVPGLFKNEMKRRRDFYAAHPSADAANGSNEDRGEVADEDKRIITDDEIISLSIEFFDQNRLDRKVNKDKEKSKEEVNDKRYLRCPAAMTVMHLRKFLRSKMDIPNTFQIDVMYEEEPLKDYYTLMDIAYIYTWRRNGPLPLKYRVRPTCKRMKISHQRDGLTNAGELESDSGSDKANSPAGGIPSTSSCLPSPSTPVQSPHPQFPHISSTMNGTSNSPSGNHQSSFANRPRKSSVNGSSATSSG
Sequence of BMI-1 (Q06587 whole entry partner, species assumed): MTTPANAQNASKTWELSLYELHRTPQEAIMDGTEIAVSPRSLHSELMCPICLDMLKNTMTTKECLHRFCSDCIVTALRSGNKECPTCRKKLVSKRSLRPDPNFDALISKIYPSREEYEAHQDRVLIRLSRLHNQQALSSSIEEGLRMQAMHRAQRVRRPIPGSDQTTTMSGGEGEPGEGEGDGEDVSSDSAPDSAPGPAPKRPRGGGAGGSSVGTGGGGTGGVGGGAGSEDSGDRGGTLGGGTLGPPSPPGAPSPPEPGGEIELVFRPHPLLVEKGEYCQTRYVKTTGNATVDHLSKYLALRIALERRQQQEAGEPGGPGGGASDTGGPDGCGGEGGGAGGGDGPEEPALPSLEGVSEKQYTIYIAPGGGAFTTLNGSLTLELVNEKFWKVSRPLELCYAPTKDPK

`Cc1ccc(-c2ccc3c(c2)C=C(C(=O)Nc2ccc(C[N+](C)(C)C4CCOCC4)cc2)CCC3)cc1.[Cl-]` [TAK779]: the “lymph node metastasis of HNSCC” value in series [1] was “significantly lessened the inhibition of lymph node metastasis”. In the series on CD8+ T cells (setting [9]), the “CD8+ T cells infiltration in HNSCC” value is reported as “significantly abrogated CD8+ T cells infiltration in HNSCC”. The “apoptosis in HNSCC” value with HNSCC tumor cells was “attenuated apoptosis in HNSCC”. Moreover, in the series with BMI1+ CSCs [2], the “BMI1+ CSCs in HNSCC (strong BMI1 staining)” value is “does not affect CSCs in HNSCC”. For the same compound, in the series with HNSCC (setting [9]), the “HNSCC growth (histological analysis)” value is given as “significantly reversed the inhibition of HNSCC growth” and the visible lesion areas result was “significantly restored visible lesion areas”.
As to `N.N.[Cl][Pt][Cl]` [cisplatin], the “CD8+ T cell infiltration in HNSCC” value with CD8+ T cells (4NQO-induced HNSCC, treated 4 weeks) was “did not significantly increase CD8+ T cell infiltration”. Moreover, the “BMI1+ CSCs in HNSCC (in vivo labeling)” value in the series with BMI1+ CSCs [3] is “significantly enriched BMI1^+ CSCs”. The “Bmi1 expression in Tomato+ CSCs (MFI of BMI1 staining)” value in the series on BMI1 [4] is reported as “induces Bmi1 expression in Tomato^+ CSCs”. For the same compound, the lesion surface areas entry with HNSCC (4NQO-induced HNSCC, Bmi1CreER;RosatdTomato mice, treated 4 weeks) is given as “reduced the lesion surface areas”.
As to `O=C1C(=Cc2cccnc2)C(=O)c2ccccc21` [PRT4165, 2-(3-pyridinylmethylene)-1H-indene-1,3(2H)-dione], the IC50 at BMI-1 was 3.9 µM.
Consider `Cc1nc2ccc(F)cc2n1-c1nc(N)c(F)c(Nc2ccc(C(F)(F)F)cc2)n1` [PTC596, 5-fluoro-2-(6-fluoro-2-methyl-1H-benzimidazol-1-yl)-N-[4-(trifluoromethyl)phenyl]pyrimidine-4,6-diamine], for which the tolerability result in [5] is on record as “tolerable with manageable gastrointestinal side effects”.
Turning to “shBMI1: BMI1 specific shRNA lentiviral plasmids (Sigma-Aldrich, Cat #TRCN0000020156), SEQ ID NO:35 (CCGGCCTAATACTTTCCAGATTGATCTCGAGATCAATCTGGAAAGTATTAGGTTTTT)”, the “BMI1 and H2AUb levels” value in the series on BMI1 [6] is “reduced the expression of BMI1”. The Olive tail moment entry in the series with pH2A.X (alkaline comet assay) was “significantly increased the Olive tail moment in SCC23 and SCC1 cells”. Further, the pH2A.X result in the series on pH2A.X (immunostaining and Western blot) was “increased pH2A.X in SCC23 and SCC1 cells”. The “accumulation of cytosolic dsDNA” value in the series with cytosolic dsDNA is “induced the accumulation of cytosolic dsDNA”. In addition, the “phosphorylation of STING (S366), TBK1 (S172) and IRF3 (S396)” value in series [7] (SCC1 cells) is “induction of phosphorylation of STING (S366), TBK1 (S172) and IRF3 (S396) in SCC1 cells”. In addition, the “phosphorylation of STING (S366), TBK1 (S172) and IRF3 (S396)” value in series [7] (SCC23 cells) was “induction of phosphorylation of STING (S366), TBK1 (S172) and IRF3 (S396) in SCC23 cells”. For the same compound, in the series with IFNβ, the “IFNβ mRNA expression” value is reported as “induction of IFNβ mRNA expression in SCC23 cells”. Further, in [8], the “levels of BMI1 on the promoters of CCL5, CXCL9, CXCL10 and CXCL11” value is “reduction of BMI1 occupied on the promoters of CCL5, CXCL9, CXCL10, and CXCL11 in SCC23 cells”; the “levels of H2AUb marks on the promoters of CCL5, CXCL9, CXCL10 and CXCL11” value was “reduction of H2AUb levels on the promoters of CCL5, CXCL9, CXCL10, and CXCL11 in SCC23 cells”. Besides, in the series on SCC23 cells, the “ATM, DNA-PKcs, and MRE11 mRNA expression” value is “does not affect the expression of ATM, DNA-PKcs, and MRE11”; the “JUN, FOSL1, MMP3, and MMP9 mRNA expression” value is “does not change the expression of JUN, FOSL1, MMP3, and MMP9 significantly”.

These data come from patent publication US20230233566A1, “INHIBITION OF BMI1 ELIMINATES CANCER STEM CELLS AND ACTIVATES ANTITUMOR IMMUNITY” (The Regents of the University of California, priority 2020, published 2023).
